Our source for the Ki values is US7049314B2, “Cyclopentyl indole derivatives” (Bristol-Myers Squibb Company, priority 2002, dated 2006).

Structures are written as SMILES. Where two headings read alike, the source gives them in different places. Bounds are passed on as bounds.

For assay [1], the target named is T1, human norepinephrine transporters (Homo sapiens, UniProt P23975).
T1 construct: host or cells: MDCK cells (also 'HEK-hNET cells'), membrane homogenates
Put plainly: Norepinephrine Transporter Binding Assay ([3H]-nisoxetine displacement, hNET cell membranes). The conditions noted are these: 2.7 nM [3H]-nisoxetine, 1 hr at 4° C., read-out: NE Reuptake (binding Ki). As to the method:
MDCK cells that stably express human norepinephrine transporters (HEK-hNET cells) were supplied by Receptor Biology, Inc. Pellets were resuspended by homogenization in buffer consisting of 50 mM Tris (pH 7.4 at 25° C.), 120 mM NaCl and 5 mM KCl. Membrane homogenates (200 μl/well, 8 ug protein) were incubated with 2.7 nM [^3H]-nisoxetine (specific activity=80 Ci/mMol) and increasing concentrations of test compounds for 1 hr at 4° C. in a total volume of 250 μl. The assay buffer consisted of 50 mM Tris (pH 7.4 at 25° C.), 120 mM NaCl and 5 mM KCl (pH 7.4 with conc. HCl). Plates were incubated for 1 hr at 4° C., then filtered through 0.5% PEI treated Whatman GF/B filters using a Brandel cell harvester. Filters were washed three times with 3 mL of ice-cold tris wash buffer. Non-specific binding was defined with 10 μM desipramine. Amount of radioligand bound in the presence and absence of competitor was analyzed by plotting (−)log drug concentration versus the amount of radioligand specifically bound. The midpoint of the displacement curve (IC50, nM), signifies the potency. Ki values were calculated using the method of Cheng and Prusoff (1973).

In assay [2] the target is T2, human serotonin transporters (Homo sapiens, UniProt P31645).
T2 construct: expressed in transfected cells
T2 sequence (P31645 whole entry): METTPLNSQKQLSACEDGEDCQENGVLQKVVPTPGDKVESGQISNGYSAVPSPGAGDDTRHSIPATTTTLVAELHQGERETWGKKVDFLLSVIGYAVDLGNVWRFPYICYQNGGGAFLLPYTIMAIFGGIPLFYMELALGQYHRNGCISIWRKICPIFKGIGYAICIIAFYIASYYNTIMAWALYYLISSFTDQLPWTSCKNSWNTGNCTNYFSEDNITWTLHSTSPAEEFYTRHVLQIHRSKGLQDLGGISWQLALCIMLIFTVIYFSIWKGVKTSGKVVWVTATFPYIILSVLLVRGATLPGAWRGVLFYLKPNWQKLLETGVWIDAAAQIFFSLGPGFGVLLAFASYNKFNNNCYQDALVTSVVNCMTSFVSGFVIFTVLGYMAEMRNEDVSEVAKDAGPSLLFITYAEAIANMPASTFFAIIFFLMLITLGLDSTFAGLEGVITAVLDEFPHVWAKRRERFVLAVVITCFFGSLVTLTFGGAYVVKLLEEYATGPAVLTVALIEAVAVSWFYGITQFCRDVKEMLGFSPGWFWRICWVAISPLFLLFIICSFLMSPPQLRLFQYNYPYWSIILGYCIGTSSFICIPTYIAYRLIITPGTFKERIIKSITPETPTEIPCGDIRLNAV
The experiment in a line: Serotonin Transporter Binding Assay ([3H]-citalopram displacement, HEK-hSERT cell membranes). On the procedure: HEK-293 cells that stably express human serotonin transporters (HEK-hSERT cells) were grown at 37° C. in 5% CO2 as a monolayer in medium consisting of EMEM supplemented with 10% fetal bovine serum and G418 sulfate (500 μg/mL). To prepare membranes for radioligand binding experiments, cells were rinsed twice with phosphate-buffered saline (138 mM NaCl, 4.1 mM KCl, 5.1 mM Na2PO4, 1.5 mM […], 11.1 mM glucose, pH 7.4). Cells were transferred from plates to polypropylene tubes (16×100 mm), centrifuged at 1,200×g for 5 min and were frozen at −80° C. until assay. Following centrifugation, pellets were resuspended by homogenization in buffer consisting of 50 mM Tris (pH 7.7 at 25° C.), 120 mM NaCl and 5 mM KCl and then centrifuged at 32,000×g for 10 min. Following centrifugation, supernatants were discarded and pellets were resuspended in buffer consisting of 50 mM Tris (pH 7.4 at 25° C.), 150 mM NaCl and 5 mM KCl. Membrane homogenates (200 μl/plate) were incubated with 1 nM [^3H]-citalopram (specific activity=85 Ci/mMol) and increasing concentrations of test compounds for 1 hr at 25° C. in a total volume of 250 μl. The assay buffer consisted of 50 mM Tris (pH 7.4 at 25° C.), 120 mM NaCl and 5 mM KCl (pH 7.4 with conc. HCl). Plates were incubated for 1 hr at 25° C., then filtered through 0.5% PEI treated Whatman GF/B filters using a Brandel cell harvester. Filters were washed three times with 3 mL of ice-cold tris wash buffer. Non-specific binding was defined with 10 μM fluoxetine. Amount of radioligand bound in the presence and absence of competitor was analyzed by plotting (−)log drug concentration versus the amount of radioligand specifically bound. The midpoint of the displacement curve (IC50, nM), signifies the potency. Ki values were calculated using the method of Cheng and Prusoff (1973).

[3] abbreviates: HEK-hSERT membranes, 1 nM [3H]-citalopram, 1 hr at 25° C., read-out: SERT (binding Ki).

T1 sequence (P23975 whole entry): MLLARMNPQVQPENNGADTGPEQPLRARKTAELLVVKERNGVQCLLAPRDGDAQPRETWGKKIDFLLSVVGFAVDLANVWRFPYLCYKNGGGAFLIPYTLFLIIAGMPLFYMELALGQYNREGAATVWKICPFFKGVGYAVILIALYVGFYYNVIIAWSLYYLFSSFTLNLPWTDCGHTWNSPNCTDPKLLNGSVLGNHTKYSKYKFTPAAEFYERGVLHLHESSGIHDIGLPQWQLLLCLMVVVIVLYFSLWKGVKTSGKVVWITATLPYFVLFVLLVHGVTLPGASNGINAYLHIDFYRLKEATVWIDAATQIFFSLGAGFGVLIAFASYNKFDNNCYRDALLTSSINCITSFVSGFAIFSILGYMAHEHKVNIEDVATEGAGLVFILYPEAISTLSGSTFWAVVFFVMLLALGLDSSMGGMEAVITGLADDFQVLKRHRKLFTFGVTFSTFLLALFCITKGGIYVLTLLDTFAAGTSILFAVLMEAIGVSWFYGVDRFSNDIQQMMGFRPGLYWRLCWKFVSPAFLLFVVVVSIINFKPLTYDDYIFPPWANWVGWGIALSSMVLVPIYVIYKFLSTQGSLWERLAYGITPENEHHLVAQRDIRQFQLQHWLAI

For the compound `N#Cc1ccc2[nH]cc(C3CCC(NCCc4ccccc4)C3)c2c1` (centres unmarked) [Compound 9, 3-(3-Phenethylamino-cyclopentyl)-1H-indole-5-carbonitrile], the Ki (usually the equilibrium dissociation constant of an inhibitor or competing ligand from its target) in assay [1] was 100 to 1000 nM; in assay [2] (setting [3]), 1 to 10 nM.
Regarding `CN(C)[C@H]1CC[C@H](c2c[nH]c3ccc(C#N)cc23)C1` [Compound 49, (1S,3S)-3-(3-dimethylaminocyclopentyl)-1H-indole-5-carbonitrile], the figures for the Ki in assay [1] and in assay [2] (setting [3]) were over 1000 nM and under 1 nM, respectively.
For `N#Cc1ccc2[nH]cc(C3CCC(N4Cc5ccccc5C4)C3)c2c1` (centres unmarked) [Compound 7, 3-[3-(1,3-Dihydro-isoindol-2-yl)-cyclopentyl]-1H-indole-5-carbonitrile] the same measures were over 1000 nM and 1 to 10 nM.
For `CCN(C)C1CCC(c2cn(C)c3ccc(C#N)cc23)C1` (centres unmarked) [Compound 22, 3-[3-(Ethyl-methyl-amino)-cyclopentyl]-1-methyl-1H-indole-5-carbonitrile], the inhibition constant Ki in assay [1] was over 1000 nM; in assay [2] it was 1 to 10 nM.
`CN(C)[C@@H]1CC[C@H](c2c[nH]c3ccc(C#N)cc23)C1` [Compound 48, (1S,3R)-3-(3-dimethylaminocyclopentyl)-1H-indole-5-carbonitrile]: the figures for the Ki in assay [1] and in assay [2] (setting [3]) were over 1000 nM and under 1 nM, respectively.
With `CCNC1CCC(c2c[nH]c3ccc(C#N)cc23)C1` (centres unmarked) [Compound 2, 3-(3-Ethylamino-cyclopentyl)-1H-indole-5-carbonitrile], the Ki in assay [1] was over 1000 nM; in assay [2] it was 1 to 10 nM.
Take `CNC1CCC(c2c[nH]c3ccc(C#N)cc23)C1` (centres unmarked) [Compound 1, 3-(3-Methylamino-cyclopentyl)-1H-indole-5-carbonitrile]: the Ki in assay [1] is over 1000 nM; in assay [2], 1 to 10 nM.
For the compound `CN(C)C1CCC(c2c[nH]c3ccc(F)cc23)C1` (centres unmarked) [Compound 33], the Ki in assay [1] was over 1000 nM; in assay [2] (setting [3]), under 1 nM.
For `CN(C)[C@H]1CC[C@@H](c2c[nH]c3ccc(F)cc23)C1` [Compound 55, (1S,3R)-3-(5-fluoro-1H-indol-3-yl)-cyclopentyl-dimethylamine], the Ki in assay [1] is over 1000 nM; in assay [2] (setting [3]), 1 to 10 nM.
As for `Cn1cc(C2CCC(N3CCOCC3)C2)c2cc(C#N)ccc21` (centres unmarked) [Compound 26, 1-Methyl-3-(3-morpholin-4-yl-cyclopentyl)-1H-indole-5-carbonitrile], the Ki in assay [1] was over 1000 nM; in assay [2] (setting [3]) it was under 1 nM.
Take `CN(CCc1ccccc1)C1CCC(c2c[nH]c3ccc(C#N)cc23)C1` (centres unmarked) [Compound 10, 3-[3-(Methyl-phenethyl-amino)-cyclopentyl]-1H-indole-5-carbonitrile]: the values for the Ki in assay [1] and in assay [2] (setting [3]) were 100 to 1000 nM and 1 to 10 nM, respectively.
`CCCNC1CCC(c2c[nH]c3ccc(C#N)cc23)C1` (centres unmarked) [Compound 16, 3-(3-Propylamino-cyclopentyl)-1H-indole-5-carbonitrile]: the Ki in assay [1] was over 1000 nM; in assay [2], under 1 nM.
As to `CCN(C)C1CCC(c2c[nH]c3ccc(F)cc23)C1` (centres unmarked) [Compound 34, Ethyl-[3-(5-fluoro-1H-indol-3-yl)cyclopentyl]-methyl-amine], the Ki was over 1000 nM in assay [1] and 1 to 10 nM in assay [2].
In the case of `CCN(CC)C1CCC(c2c[nH]c3ccc(C#N)cc23)C1` (centres unmarked) [Compound 5, 3-(3-Diethylamino-cyclopentyl)-1H-indole-5-carbonitrile], the Ki is over 1000 nM in assay [1] and 1 to 10 nM in assay [2] (setting [3]).
As to `CN(C)[C@@H]1CC[C@@H](c2c[nH]c3ccc(F)cc23)C1` [Compound 54, (1R,3R)-3-(5-fluoro-1H-indol-3-yl)-cyclopentyl-dimethylamine], the Ki is over 1000 nM in assay [1] and 1 to 10 nM in assay [2] (setting [3]).
For `CN(C)[C@H]1CC[C@H](c2c[nH]c3ccc(F)cc23)C1` [Compound 52, (1S,3S)-3-(5-fluoro-1H-indol-3-yl)-cyclopentyl-dimethylamine], the inhibition constant Ki in assay [1] was over 1000 nM; in assay [2] (setting [3]), 1 to 10 nM.
As to `Fc1ccc2[nH]cc(C3CCC(N4CCCC4)C3)c2c1` (centres unmarked) [Compound 36], the Ki in assay [1] is over 1000 nM; in assay [2], 1 to 10 nM.
Take `CN(C)C1CCC(c2c[nH]c3cc(Br)ccc23)C1` (centres unmarked) [Compound 44, 3-(6-Bromo-1H-indol-3-yl)-cyclopentyl-dimethyl-amine]: the Ki in assay [2] (setting [3]) was in the range of 1 to 10 nM.
Regarding `CN(Cc1ccccc1)C1CCC(c2cn(C)c3ccc(C#N)cc23)C1` (centres unmarked) [Compound 27, 3-[3-(Benzyl-methyl-amino)-cyclopentyl]-1-methyl-1H-indole-5-carbonitrile], the Ki in assay [1] was over 1000 nM; in assay [2] (setting [3]), under 1 nM.
With `CN(C)[C@H]1CC[C@@H](c2c[nH]c3ccc(C#N)cc23)C1` [Compound 50, (1R,3S)-3-(3-dimethylaminocyclopentyl)-1H-indole-5-carbonitrile], the Ki in assay [1] was over 1000 nM; in assay [2] (setting [3]), under 1 nM.
Regarding `N#Cc1ccc2[nH]cc(C3CCC(N4CCc5ccccc5C4)C3)c2c1` (centres unmarked) [Compound 8, 3-[3-(3,4-Dihydro-1H-isoquinolin-2-yl)-cyclopentyl]-1H-indole-5-carbonitrile], the values for the Ki in assay [1] and in assay [2] (setting [3]) were 100 to 1000 nM and 1 to 10 nM, respectively.
In the case of `CN(C)C1CCC(c2c[nH]c3ccc(Cl)cc23)C1` (centres unmarked) [Compound 39, 3-(5-Chloro-1H-indol-3-yl)-cyclopentyl-dimethyl-amine], the Ki in assay [2] (setting [3]) was in the range of 1 to 10 nM.
Take `CN(C)C1CCC(c2c[nH]c3c(F)cccc23)C1` (centres unmarked) [Compound 45, 3-(7-Fluoro-1H-indol-3-yl)-cyclopentyl-dimethyl-amine]: the Ki in assay [2] (setting [3]) is 1 to 10 nM.
Consider `CN(C)C1CCC(c2c[nH]c3cc(Cl)ccc23)C1` (centres unmarked) [Compound 43, 3-(6-Chloro-1H-indol-3-yl)-cyclopentyl-dimethyl-amine], for which the Ki in assay [2] (setting [3]) was in the range of 1 to 10 nM.
With `CN(C)C1CCC(c2c[nH]c3cccc(F)c23)C1` (centres unmarked) [Compound 37, 3-(4-Fluoro-1H-indol-3-yl)-cyclopentyl-dimethyl-amine], the Ki in assay [2] (setting [3]) fell in the range of 10 to 100 nM.
Consider `CN(C)C1CCC(c2c[nH]c3ccc(I)cc23)C1` (centres unmarked) [Compound 41, 3-(5-Iodo-1H-indol-3-yl)-cyclopentyl-dimethyl-amine], for which the Ki in assay [2] (setting [3]) is 10 to 100 nM.
In the case of `N#Cc1ccc2[nH]cc([C@H]3CCC(NC4CC[C@H](c5c[nH]c6ccc(C#N)cc56)C4)C3)c2c1` (stereo partly drawn) [Compound 61, (3S,3′S)-bis-(3-(5-cyano-1H-indol-3-yl)cyclopentyl)amine], the inhibition constant (Ki) in assay [2] (setting [3]) was in the range of 1 to 10 nM.
Turning to `N#Cc1ccc2[nH]cc([C@H]3CCC(N)C3)c2c1` (stereo partly drawn) [Compound 60, (1S)-3-(3-Amino-cyclopentyl)-1H-indole-05-carbonitrile], in assay [2] (setting [3]), the Ki was 10 to 100 nM.
Same read-out and setting: in the case of `CN(C)C1CCC(c2c[nH]c3c(Cl)cccc23)C1` (centres unmarked) [Compound 46, 3-(7-Chloro-1H-indol-3-yl)-cyclopentyl-dimethyl-amine] it was under 1 nM.
In the case of `CN(C)C1CCC(c2c[nH]c3c(Br)cccc23)C1` (centres unmarked) [Compound 47, 3-(7-Bromo-1H-indol-3-yl)-cyclopentyl-dimethyl-amine], the Ki in assay [2] (setting [3]) fell in the range of 1 to 10 nM.
`CN(C)C1CCC(c2c[nH]c3cc(F)ccc23)C1` (centres unmarked) [Compound 42, 3-(6-Fluoro-1H-indol-3-yl)-cyclopentyl-dimethyl-amine]: the Ki in assay [2] (setting [3]) lay within 1 to 10 nM.
`CN(C)C1CCC(c2c[nH]c3cccc(Br)c23)C1` (centres unmarked) [Compound 38, 3-(4-Bromo-1H-indol-3-yl)-cyclopentyl-dimethyl-amine]: in assay [2] (setting [3]), the Ki is 1 to 10 nM.
As to `CN(C)C1CCC(c2c[nH]c3ccc(Br)cc23)C1` (centres unmarked) [Compound 40, 3-(5-Bromo-1H-indol-3-yl)-cyclopentyl-dimethyl-amine], the Ki in assay [2] (setting [3]) lay within 1 to 10 nM.
